What all share (settings): incubation time: 72 h
Assay [1] deals with CAL-148. Put plainly: normalised viability (% of control), CellTiter-Blue; higher = more viable cells (about 100 = DMSO control). The procedure: (§1)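 DSRT, CellTiter-Blue viability, 72 h incubation. Signal is normalised to DMSO and benzethonium chloride controls. Value is the normalised response at dose 6.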
(The colour change of resazurin is a common sign of viable cells or microbes.)

Assay [2] concerns CAL-51. The assay is described as above. As to the method:
as §1

The subject of assay [3] is CAL-85-1. Described as above. The procedure: as §1
Assay [4] deals with DU-4475. Described as above. The procedure:
as §1

The test system of assay [5] is HDQ-P1. Described as above. As to the method: as §1
Assay [6] deals with MDA-MB-453. The assay is described as above. As to the method:
as §1

In assay [7] the test system is CAL-148. The description is as above. As to the method:
(§2)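 DSRT, CellTiter-Blue viability, 72 h incubation. Signal is normalised to DMSO and benzethonium chloride controls. Value is the normalised response at dose 8.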
The source holds these as a separate data set.

The subject of assay [8] is CAL-51. Described as above. As to the method:
as §2
This is another data set of the same source.

The test system of assay [9] is CAL-85-1. The description is as above. As to the method:
as §2
The source holds these as a separate data set.

Assay [10] has as its system HDQ-P1. Described as above. As to the method:
as §2
The source holds these as a separate data set.

In assay [11] the test system is MDA-MB-453. Described as above. As to the method: as §2
The source holds these as a separate data set.

Assay [12] deals with BT-474. Put plainly: normalised response (% of control), CellTox Green; higher = less cell death (100 = DMSO, 0 = benzethonium chloride kill control). In a few lines: (§3)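 Breast cancer cell lines were exposed for 72 h in 384-well plates to compound at 5 concentrations, 10-fold apart, covering a 10,000-fold range fixed for each compound. Plates were read for CellTox Green fluorescence and CellTiter-Glo luminescence and normalised to 0.1 % DMSO (100) and a positive kill control (0). Each value is the normalised signal at one concentration of the series.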

Assay [13] has as its system BT-549. The assay is described as above. In a few lines:
as §3

The test system of assay [14] is CAL-120. Described as above. The method, boiled down: as §3
For assay [15], the system named is CAL-148. The description is as above. The method, boiled down: as §3
Assay [16] concerns CAL-51. The assay is described as above. In a few lines: as §3
Assay [17] relates to CAL-85-1. Described as above. In a few lines:
as §3

Assay [18] concerns DU-4475. The assay is described as above. The method, boiled down: as §3
Assay [19] relates to HCC1143. The assay is described as above. In a few lines: as §3
Assay [20] relates to HCC1599. Described as above. The method, boiled down:
as §3

Assay [21] concerns HCC1937. The assay is described as above. The method, boiled down:
as §3

Assay [22] deals with HDQ-P1. The assay is described as above. The method, boiled down:
as §3

Assay [23] has as its system Hs578T. The assay is described as above. In a few lines:
as §3

Assay [24] has as its system MCF-10A. Described as above. In a few lines: as §3
Assay [25] has as its system MDA-MB-231. The description is as above. The method, boiled down: as §3
For assay [26], the system named is MDA-MB-436. Described as above. In a few lines: as §3
Assay [27] relates to MDA-MB-453. Described as above. The method, boiled down:
as §3

Assay [28] deals with MDA-MB-468. The description is as above. The method, boiled down:
as §3

Assay [29] relates to MFM-223. The description is as above. The method, boiled down:
as §3

Assay [30] relates to BT-474. Put plainly: normalised response (% of control), CellTiter-Glo; higher = more viable cells (100 = DMSO, 0 = benzethonium chloride kill control). As to the method: (§4)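 DSRT, 72 h incubation, CellTox Green / CellTiter-Glo readout. Signal is normalised to DMSO and benzethonium chloride controls. Value is the normalised response at the highest dose.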
(In ATP-based viability assays light output follows the ATP content of the culture.)

Assay [31] has as its system BT-549. The description is as above. The procedure:
as §4

Assay [32] relates to CAL-120. The description is as above. As to the method:
as §4

For assay [33], the system named is CAL-148. The description is as above. As to the method:
as §4

In assay [34] the test system is CAL-51. The assay is described as above. As to the method:
as §4

Assay [35] concerns CAL-85-1. Described as above. As to the method:
as §4

Assay [36] has as its system DU-4475. The assay is described as above. As to the method: as §4
Assay [37] relates to HCC1143. Described as above. As to the method: as §4
Assay [38] relates to HCC1599. The description is as above. As to the method:
as §4

In assay [39] the test system is HCC1937. The assay is described as above. The procedure: as §4
In assay [40] the test system is HDQ-P1. The assay is described as above. As to the method:
as §4

The subject of assay [41] is Hs578T. Described as above. The procedure:
as §4

Assay [42] deals with MCF-10A. Described as above. As to the method: as §4
Assay [43] has as its system MDA-MB-231. The assay is described as above. The procedure:
as §4

For assay [44], the system named is MDA-MB-436. Described as above. The procedure: as §4
In assay [45] the test system is MDA-MB-453. The description is as above. As to the method:
as §4

For assay [46], the system named is MDA-MB-468. Described as above. As to the method:
as §4

In assay [47] the test system is MFM-223. The assay is described as above. As to the method: as §4
Assay [48] concerns SK-BR-3. Described as above. The procedure:
as §4

Several values for one entry are separate records, joined by “and”; a condition that tells them apart may be missing. Identical values can stand only once.

Take `Cc1c(N)nc([C@H](CC(N)=O)NC[C@H](N)C(N)=O)nc1C(=O)N[C@H](C(=O)N[C@H](C)[C@@H](O)[C@H](C)C(=O)N[C@H](C(=O)NCCc1nc(-c2nc(C(=O)NCCC[S+](C)C)cs2)cs1)[C@@H](C)O)[C@@H](OC1OC(CO)C(O)C(O)C1OC1OC(CO)C(O)C(OC(N)=O)C1O)c1cnc[nH]1` (some centres undefined) [Bleomycin] (300 nM): the normalised viability is 81.5% in assay [1]; 90.9% in [2]; 92.5% in [3]; 107% in [4]; 72.9% in assay [5]; 102% in assay [6].

With `Cc1cc2c(F)c(Oc3ncnn4cc(OC[C@@H](C)O)c(C)c34)ccc2[nH]1` [Brivanib] (30 nM), the normalised viability in assay [1] was determined as 92.6%; in assay [2], 91.9%; in assay [3], 91.7%; in assay [4], 109%; in [5] it was 65.1%; in assay [6] it was 85.4%.

Consider `CCCCCOC(=O)Nc1nc(=O)n([C@@H]2O[C@H](C)[C@@H](O)[C@H]2O)cc1F` [Capecitabine] (300 nM), for which the normalised viability is 98% and 94.3% in assay [1]; 103% and 96.5% in [2]; 92.1% and 98.6% in [3]; 62.7% and 83.6% in assay [5]; 108% and 94.3% in assay [6].

For `CCCCCOC(=O)Nc1nc(=O)n([C@@H]2O[C@H](C)[C@@H](O)[C@H]2O)cc1F` [Capecitabine] (3000 nM), the normalised viability in assay [7] is 98.8% and 92.8%; in [8] it was 109% and 96%; in assay [9], 82.3% and 95.4%; in [10] it was 89.4% and 86.4%; in assay [11], 95.7% and 93.7%.

In the case of `CC(C)C[C@H](NC(=O)[C@H](CCc1ccccc1)NC(=O)CN1CCOCC1)C(=O)N[C@@H](Cc1ccccc1)C(=O)N[C@@H](CC(C)C)C(=O)[C@@]1(C)CO1` [Carfilzomib] (30 nM), the normalised viability in assay [1] amounted to 40.8%; in assay [2] it was 32.1%; in assay [3], 9.23%; in assay [4], 8.97%; in assay [5], 1.01%; in assay [6], 19.8%.

As to `Nc1nc(Cl)nc2c1ncn2[C@@H]1O[C@H](CO)[C@@H](O)[C@@H]1F` [Clofarabine] (300 nM), the normalised viability in assay [1] worked out at 68.7%; in assay [2], 81.9%; in assay [3] it was 65.1%; in assay [4], 77%; in [5], 70.1%; in assay [6], 82.9%.

Turning to `CCN(CC)CCOc1ccc(C(=C(Cl)c2ccccc2)c2ccccc2)cc1` [Clomifene] (300 nM), the normalised viability came out at 99.2% in assay [1]; 91.6% in assay [2]; 102% in [3]; 90.6% in [4]; 105% in assay [5]; 93.9% in [6].

Turning to `C[C@@H]1C[C@H]2[C@@H]3CCC4=CC(=O)C=C[C@]4(C)[C@@]3(F)[C@@H](O)C[C@]2(C)[C@@]1(O)C(=O)CO` [Dexamethasone] (300 nM), the normalised viability in assay [1] was 105%; in assay [2] it was 99.4%; in assay [3], 99.3%; in assay [4] it was 99%; in assay [5] it was 69.5%; in [6], 73.7%.

As for `C[C@@H](CN1CC(=O)NC(=O)C1)N1CC(=O)NC(=O)C1` [Dexrazoxane] (300 nM), the normalised viability is 83.5% in assay [1]; 95% in assay [2]; 95.4% in [3]; 108% in assay [4]; 82.2% in assay [5]; 97.6% in assay [6].

With `CC(C)C(=O)Nc1ccc([N+](=O)[O-])c(C(F)(F)F)c1` [Flutamide] (300 nM), the normalised viability is 104% in [1]; 105% in assay [2]; 98.3% in assay [3]; 113% in assay [4]; 93.6% in assay [5]; 108% in assay [6].

Regarding `COc1cc2c(Oc3ccc(NC(=O)C4(C(=O)Nc5ccc(F)cc5)CC4)cc3F)ccnc2cc1OCCCN1CCOCC1` [Foretinib] (30 nM), the normalised viability in [1] came to 95.1%; in [2], 93.3%; in assay [3], 89.2%; in [4], 84.3%; in assay [5], 59.1%; in assay [6] it was 94.1%.

As to `NC(=O)NO` [Hydroxyurea] (3000 nM), the normalised viability came out at 108% in assay [1]; 103% in assay [2]; 110% in [3]; 91.3% in [4]; 91.3% in assay [5]; 109% in assay [6].

Consider `CN1CCc2c(c3ccccc3n2Cc2ccc(C(=O)NO)cc2)C1` [Tubastatin A] (10000 nM), for which the normalised response in assay [12] is 86.9%; in assay [13] it was 87.1%; in assay [14], 99.3%; in assay [15], 80.1%; in assay [16] it was -14.9%; in assay [17], 80.3%. Besides, the normalised response is 93.7% in assay [18]; 55.3% in [19]; 90.1% in assay [20]; 61.3% in assay [21]; 106% in assay [22]; 122% in assay [23]. For the same compound, the normalised response was found to be 99.6% in assay [24]; 49.3% in assay [25]; 79.8% in [26]; 91.3% in assay [27]; 41.7% in assay [28]; 84.2% in [29]. In addition, the normalised response in [30] was found to be 75.4%; in [31] it was 75%; in assay [32], 84.1%; in assay [33], 77.3%; in assay [34] it was 39.3%; in assay [35] it was 72.5%. Also, the normalised response was 79.9% in [36]; 47.1% in assay [37]; 85.3% in assay [38]; 70.1% in assay [39]; 73.3% in assay [40]; 87.9% in assay [41]. For the same compound, the normalised response worked out at 98.5% in [42]; 72% in assay [43]; 72.3% in assay [44]; 57.4% in assay [45]; 66.4% in assay [46]; 87% in assay [47]. Further, in assay [48], the normalised response came out at 42.2%.

Turning to `CCc1c(C(=O)C(N)=O)c2c(OCC(=O)O)cccc2n1Cc1ccccc1` [Varespladib] (10000 nM), the normalised response in assay [12] came out at 99.6%; in [13] it was 103%; in assay [14], 104%; in assay [15], 98.3%; in assay [16], 108%; in assay [17], 93.6%. In addition, the normalised response in assay [18] was found to be 97.5%; in assay [19], 103%; in assay [20] it was 102%; in assay [21] it was 72.7%; in [22], 97.1%; in [23], 121%. The normalised response in assay [24] was 110%; in assay [25], 102%; in [26], 105%; in assay [27] it was 101%; in assay [28] it was 109%; in [29], 90%. The normalised response is 99.2% in [30]; 99.8% in assay [31]; 115% in [32]; 109% in assay [33]; 97.3% in assay [34]; 104% in [35]. Besides, the normalised response was 91.3% in assay [36]; 101% in assay [37]; 95.1% in assay [38]; 96.7% in assay [39]; 98.8% in [40]; 99.3% in assay [41]. Also, the normalised response in assay [42] came to 100%; in assay [43], 95.7%; in assay [44], 101%; in assay [45], 102%; in assay [46], 97.7%; in assay [47], 105%. Further, the normalised response in assay [48] turned out to be 103%.
